Assay results reported in ChEMBL document CHEMBL1201862, “PubChem BioAssay data set” (2004).
The source made the active and inactive calls.

Key:
[1] = A Cell Based Secondary Assay To Explore Cytotoxicity of Compounds that Sensitize Mycobacterium Tuberculosis to Beta-Lactam Antibiotics.; type: functional
Escherichia coli [2] = assay: microbe, parasite or virus in culture
Escherichia coli [3] = assay: microbe, parasite or virus in culture; remark: listed apart in the source
Large T antigen = Large T antigen (Simian virus 40, UniProt P03070); type: functional, Betapolyomavirus macacae;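 also: Confirmatory-stage PubChem screen for compounds that inhibit SV40 T antigen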
Estrogen receptor beta = Estrogen receptor beta (Homo sapiens, UniProt Q92731);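 also: recombinant ER-beta bound to coactivator SRC1 peptide in presence of estradiol agonist; inhibitors block coactivator peptide binding and lower the FRET signal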
Cytochrome P450 2C9 = Cytochrome P450 2C9 (Homo sapiens, UniProt P11712)
Cytochrome P450 2C19 = Cytochrome P450 2C19 (Homo sapiens, UniProt P33261); assay: Cytochrome panel assay with activity outcomes. Panel member name: p450-cyp2c19 Compounds with AC50 equal or less than 10 uM are considered active; type: functional; conditions: read-out: AC50
[4] = molecular target: FAD-linked sulfhydryl oxidase ALR (Homo sapiens, UniProt P55789); assay: ALR-catalysed DTT oxidation blockers – biochemical, H2O2 detection, luminescence, cherry-pick, dose response (AID 493248)
cells [5] = type: functional, cell-based
cells [6] = type: functional, cell-based; remark: listed apart in the source
fMet-Leu-Phe receptor = molecular target: T1, fMet-Leu-Phe receptor (Homo sapiens, UniProt P21462); assay: formyl peptide receptor binders – dose response (AID 519); type: functional
T1 sequence (P21462 whole entry): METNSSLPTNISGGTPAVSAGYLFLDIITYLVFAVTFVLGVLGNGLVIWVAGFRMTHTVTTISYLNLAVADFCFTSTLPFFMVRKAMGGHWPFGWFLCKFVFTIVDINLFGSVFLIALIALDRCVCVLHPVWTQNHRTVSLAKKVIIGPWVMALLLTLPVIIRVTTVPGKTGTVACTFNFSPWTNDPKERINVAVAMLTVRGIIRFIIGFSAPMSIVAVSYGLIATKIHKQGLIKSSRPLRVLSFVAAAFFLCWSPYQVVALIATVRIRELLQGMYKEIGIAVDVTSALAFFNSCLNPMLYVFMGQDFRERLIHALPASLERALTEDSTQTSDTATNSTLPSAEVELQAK

[7] = viability loss of HPDE-C7K cells – cell-based, fluorescence, HTS, primary screen (AID 431); type: functional; conditions: Homo sapiens
[8] = HPDE-C7 pancreatic duct cell viability loss – fluorescence, HTS (AID 430); type: functional, cell-based; conditions: Homo sapiens
[9] = molecular target: T2, Replicative DNA helicase DnaB (Mycobacterium tuberculosis, UniProt P9WMR3); assay: DnaB intein splicing inhibitors, dose response, biochemical, cell-free fluorescence (AID 449749); type: functional
T2 sequence (P9WMR3 whole entry): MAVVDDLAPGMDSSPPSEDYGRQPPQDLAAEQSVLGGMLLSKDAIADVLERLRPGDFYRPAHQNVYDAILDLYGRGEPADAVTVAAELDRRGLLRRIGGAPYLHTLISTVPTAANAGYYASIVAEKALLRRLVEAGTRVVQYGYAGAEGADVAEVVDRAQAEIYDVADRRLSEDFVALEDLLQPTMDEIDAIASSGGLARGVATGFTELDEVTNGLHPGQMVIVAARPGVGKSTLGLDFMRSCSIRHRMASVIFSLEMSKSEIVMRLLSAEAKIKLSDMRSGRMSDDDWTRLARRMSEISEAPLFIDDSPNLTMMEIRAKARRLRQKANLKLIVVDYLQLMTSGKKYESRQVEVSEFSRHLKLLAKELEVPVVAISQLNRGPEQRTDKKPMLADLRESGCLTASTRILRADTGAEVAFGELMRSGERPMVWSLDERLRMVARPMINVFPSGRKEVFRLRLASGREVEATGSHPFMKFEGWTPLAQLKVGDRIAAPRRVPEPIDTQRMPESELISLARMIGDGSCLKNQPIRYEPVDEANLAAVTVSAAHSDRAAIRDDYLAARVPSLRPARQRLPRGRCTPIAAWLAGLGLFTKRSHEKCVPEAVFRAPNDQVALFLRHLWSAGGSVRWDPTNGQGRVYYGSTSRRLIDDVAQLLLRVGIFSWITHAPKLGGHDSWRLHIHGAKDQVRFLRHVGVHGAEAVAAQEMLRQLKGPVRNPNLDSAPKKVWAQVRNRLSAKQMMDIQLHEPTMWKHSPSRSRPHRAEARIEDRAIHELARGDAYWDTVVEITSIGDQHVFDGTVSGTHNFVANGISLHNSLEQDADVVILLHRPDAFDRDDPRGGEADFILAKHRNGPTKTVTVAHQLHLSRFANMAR

[10] = molecular target: Eukaryotic translation initiation factor 4E (Mus musculus, UniProt P63073); assay: blockers of eIF4G binding by eIF4E – biochemical, TR-FRET, dose response (AID 855); type: functional;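 also: potency for disrupting eIF4E binding to eIF4GI seen as loss of FRET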
Protein RecA = molecular target: T3, Protein RecA (Mycobacterium tuberculosis, UniProt P9WHJ3); assay: Fluorescence Cell-Free Homogeneous Dose Retest to Identify Inhibitors of RecA-Intein Splicing Activity. [Related pubchem assays (depositor defined):AID2097, AID2223, AID489010, AID492950]; type: functional
T3 sequence (P9WHJ3 whole entry): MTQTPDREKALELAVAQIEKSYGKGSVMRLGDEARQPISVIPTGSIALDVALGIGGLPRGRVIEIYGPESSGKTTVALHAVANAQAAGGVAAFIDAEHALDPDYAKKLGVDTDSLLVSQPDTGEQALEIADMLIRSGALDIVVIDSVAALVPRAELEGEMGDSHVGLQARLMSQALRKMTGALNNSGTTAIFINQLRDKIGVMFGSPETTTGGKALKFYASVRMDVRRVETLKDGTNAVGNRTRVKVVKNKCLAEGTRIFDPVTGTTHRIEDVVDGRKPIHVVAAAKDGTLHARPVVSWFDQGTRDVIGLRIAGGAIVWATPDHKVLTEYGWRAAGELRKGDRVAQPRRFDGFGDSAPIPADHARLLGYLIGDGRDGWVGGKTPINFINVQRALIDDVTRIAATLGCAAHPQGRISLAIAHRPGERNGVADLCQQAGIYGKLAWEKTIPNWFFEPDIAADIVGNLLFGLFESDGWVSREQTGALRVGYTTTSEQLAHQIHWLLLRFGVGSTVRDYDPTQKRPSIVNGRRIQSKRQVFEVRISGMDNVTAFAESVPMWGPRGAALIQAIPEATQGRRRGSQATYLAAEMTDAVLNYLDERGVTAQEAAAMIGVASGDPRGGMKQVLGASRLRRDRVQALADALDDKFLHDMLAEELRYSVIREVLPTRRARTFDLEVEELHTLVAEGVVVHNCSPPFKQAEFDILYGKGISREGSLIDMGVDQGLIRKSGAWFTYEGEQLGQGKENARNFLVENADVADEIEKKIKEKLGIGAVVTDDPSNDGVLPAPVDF

Cytochrome P450 1A2 = molecular target: T4, Cytochrome P450 1A2 (Homo sapiens, UniProt P05177);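 also: PubChem cytochrome P450 panel assay, CYP1A2 panel member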
T4 sequence (P05177 whole entry): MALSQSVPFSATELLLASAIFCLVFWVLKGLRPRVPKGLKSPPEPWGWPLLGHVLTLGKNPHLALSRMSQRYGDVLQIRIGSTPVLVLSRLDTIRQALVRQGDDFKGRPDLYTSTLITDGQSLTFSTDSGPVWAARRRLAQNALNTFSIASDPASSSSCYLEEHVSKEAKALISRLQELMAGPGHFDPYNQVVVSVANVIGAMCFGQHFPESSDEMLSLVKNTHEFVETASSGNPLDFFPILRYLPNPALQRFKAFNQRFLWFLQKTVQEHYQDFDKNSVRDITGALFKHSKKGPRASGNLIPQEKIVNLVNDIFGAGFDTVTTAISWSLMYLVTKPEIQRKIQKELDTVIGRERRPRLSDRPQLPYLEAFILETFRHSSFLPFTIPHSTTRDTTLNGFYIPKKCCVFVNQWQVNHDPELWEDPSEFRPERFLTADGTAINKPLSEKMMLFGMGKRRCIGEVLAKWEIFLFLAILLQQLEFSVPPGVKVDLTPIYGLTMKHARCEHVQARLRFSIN

Cytochrome P450 2D6 = Cytochrome P450 2D6 (Homo sapiens, UniProt P10635);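 also: CYP2D6 member of a cytochrome P450 panel assay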
[11] = OVCAR8 cell viability loss – plate reader, dry powder samples, PAX8 project, dose response (AID 743197); type: functional, cell-based; conditions: OVCAR-8
Paired box protein Pax-8 = Paired box protein Pax-8 (Homo sapiens, UniProt Q06710); assay: PAX8 transcriptional activity inhibition in RMG-I – RMG-I cells, luciferase, cherry-pick, dose response (AID 687027); type: functional, cell-based;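 also: luciferase reporter driven by Pax8 target thyroperoxidase promoter measured by SteadyGlo luminescence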
[12] = molecular target: T5, Rac GTPase-activating protein 1 (Homo sapiens, UniProt Q9H0H5); assay: blockers of MgcRacGAP-driven Rac1 GTP hydrolysis – biochemical, ADP Hunter fluorescence, primary and confirmatory, confirmation (AID 624330); type: functional
T5 sequence (Q9H0H5 whole entry): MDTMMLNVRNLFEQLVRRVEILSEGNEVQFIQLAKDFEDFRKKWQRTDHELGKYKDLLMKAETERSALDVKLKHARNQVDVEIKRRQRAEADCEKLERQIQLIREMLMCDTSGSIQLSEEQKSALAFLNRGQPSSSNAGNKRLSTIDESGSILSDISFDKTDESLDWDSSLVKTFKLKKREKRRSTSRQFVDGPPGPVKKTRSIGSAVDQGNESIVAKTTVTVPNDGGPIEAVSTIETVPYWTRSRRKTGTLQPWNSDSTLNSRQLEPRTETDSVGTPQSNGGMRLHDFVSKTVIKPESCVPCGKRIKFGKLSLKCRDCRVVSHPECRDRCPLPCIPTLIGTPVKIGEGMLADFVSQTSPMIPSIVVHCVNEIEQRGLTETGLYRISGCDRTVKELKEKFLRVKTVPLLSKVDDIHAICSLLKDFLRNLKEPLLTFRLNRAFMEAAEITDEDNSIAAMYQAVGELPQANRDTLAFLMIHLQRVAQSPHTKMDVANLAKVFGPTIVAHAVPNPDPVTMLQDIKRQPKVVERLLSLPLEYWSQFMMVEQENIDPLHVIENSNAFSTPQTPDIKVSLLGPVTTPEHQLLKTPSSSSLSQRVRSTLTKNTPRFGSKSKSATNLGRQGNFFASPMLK

Large T antigen, sequence (P03070 whole entry): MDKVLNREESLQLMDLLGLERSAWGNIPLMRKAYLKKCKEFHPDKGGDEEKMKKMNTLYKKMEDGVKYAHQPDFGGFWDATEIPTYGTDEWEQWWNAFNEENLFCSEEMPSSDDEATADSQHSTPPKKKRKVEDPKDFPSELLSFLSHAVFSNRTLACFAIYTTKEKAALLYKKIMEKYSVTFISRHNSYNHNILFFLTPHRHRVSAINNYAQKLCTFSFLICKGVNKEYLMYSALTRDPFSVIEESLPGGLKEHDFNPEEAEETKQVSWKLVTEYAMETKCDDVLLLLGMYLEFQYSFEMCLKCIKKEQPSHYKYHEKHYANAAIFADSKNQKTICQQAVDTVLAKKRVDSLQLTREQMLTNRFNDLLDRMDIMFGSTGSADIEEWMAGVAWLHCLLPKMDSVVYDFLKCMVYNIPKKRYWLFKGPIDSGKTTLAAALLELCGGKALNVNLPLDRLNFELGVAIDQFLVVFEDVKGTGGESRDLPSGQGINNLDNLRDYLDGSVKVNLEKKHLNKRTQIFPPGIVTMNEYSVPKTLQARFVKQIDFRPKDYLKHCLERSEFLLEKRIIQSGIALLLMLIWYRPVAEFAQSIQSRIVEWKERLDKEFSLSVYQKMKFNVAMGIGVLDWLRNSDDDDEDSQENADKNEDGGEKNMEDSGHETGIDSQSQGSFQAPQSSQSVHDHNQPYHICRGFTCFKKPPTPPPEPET
Paired box protein Pax-8, sequence (Q06710 whole entry): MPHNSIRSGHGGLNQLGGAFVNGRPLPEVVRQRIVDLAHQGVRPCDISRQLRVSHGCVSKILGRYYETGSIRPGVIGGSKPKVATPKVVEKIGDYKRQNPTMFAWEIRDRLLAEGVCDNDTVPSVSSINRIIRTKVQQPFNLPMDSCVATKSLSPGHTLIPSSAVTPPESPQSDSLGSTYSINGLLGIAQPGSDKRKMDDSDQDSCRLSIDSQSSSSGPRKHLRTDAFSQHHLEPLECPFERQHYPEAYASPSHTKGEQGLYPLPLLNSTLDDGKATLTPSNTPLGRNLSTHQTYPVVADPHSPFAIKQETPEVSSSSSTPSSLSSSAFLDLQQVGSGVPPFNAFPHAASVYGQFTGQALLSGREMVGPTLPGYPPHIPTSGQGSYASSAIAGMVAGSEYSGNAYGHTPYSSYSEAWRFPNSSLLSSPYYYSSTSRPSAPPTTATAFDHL
Estrogen receptor beta, sequence (Q92731 whole entry): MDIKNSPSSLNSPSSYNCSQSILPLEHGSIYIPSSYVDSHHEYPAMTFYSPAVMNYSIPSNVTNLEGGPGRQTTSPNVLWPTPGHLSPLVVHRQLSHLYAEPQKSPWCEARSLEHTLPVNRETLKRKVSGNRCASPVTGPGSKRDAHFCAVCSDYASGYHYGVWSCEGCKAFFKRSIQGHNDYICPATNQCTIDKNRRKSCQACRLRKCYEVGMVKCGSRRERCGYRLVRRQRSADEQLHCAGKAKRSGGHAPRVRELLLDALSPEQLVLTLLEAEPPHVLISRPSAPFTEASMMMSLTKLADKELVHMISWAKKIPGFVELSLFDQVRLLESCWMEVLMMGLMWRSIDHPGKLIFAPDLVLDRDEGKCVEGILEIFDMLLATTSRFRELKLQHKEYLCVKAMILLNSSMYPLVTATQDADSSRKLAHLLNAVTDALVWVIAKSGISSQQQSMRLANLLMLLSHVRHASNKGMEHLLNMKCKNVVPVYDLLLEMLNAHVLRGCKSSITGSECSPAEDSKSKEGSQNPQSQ
Cytochrome P450 2C9, sequence (P11712 whole entry): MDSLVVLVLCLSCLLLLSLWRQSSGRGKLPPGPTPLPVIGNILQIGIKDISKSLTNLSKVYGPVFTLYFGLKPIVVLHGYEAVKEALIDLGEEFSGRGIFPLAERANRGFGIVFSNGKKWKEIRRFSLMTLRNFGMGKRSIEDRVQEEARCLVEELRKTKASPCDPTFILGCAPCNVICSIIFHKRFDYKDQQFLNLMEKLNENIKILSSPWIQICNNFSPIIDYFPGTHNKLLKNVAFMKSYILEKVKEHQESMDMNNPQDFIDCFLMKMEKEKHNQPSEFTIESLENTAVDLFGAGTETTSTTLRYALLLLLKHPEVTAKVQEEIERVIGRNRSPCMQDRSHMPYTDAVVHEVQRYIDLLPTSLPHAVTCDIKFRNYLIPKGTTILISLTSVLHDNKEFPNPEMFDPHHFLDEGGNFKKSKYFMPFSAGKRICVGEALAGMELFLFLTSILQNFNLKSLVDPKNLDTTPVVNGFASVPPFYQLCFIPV
Cytochrome P450 2D6, sequence (P10635 whole entry): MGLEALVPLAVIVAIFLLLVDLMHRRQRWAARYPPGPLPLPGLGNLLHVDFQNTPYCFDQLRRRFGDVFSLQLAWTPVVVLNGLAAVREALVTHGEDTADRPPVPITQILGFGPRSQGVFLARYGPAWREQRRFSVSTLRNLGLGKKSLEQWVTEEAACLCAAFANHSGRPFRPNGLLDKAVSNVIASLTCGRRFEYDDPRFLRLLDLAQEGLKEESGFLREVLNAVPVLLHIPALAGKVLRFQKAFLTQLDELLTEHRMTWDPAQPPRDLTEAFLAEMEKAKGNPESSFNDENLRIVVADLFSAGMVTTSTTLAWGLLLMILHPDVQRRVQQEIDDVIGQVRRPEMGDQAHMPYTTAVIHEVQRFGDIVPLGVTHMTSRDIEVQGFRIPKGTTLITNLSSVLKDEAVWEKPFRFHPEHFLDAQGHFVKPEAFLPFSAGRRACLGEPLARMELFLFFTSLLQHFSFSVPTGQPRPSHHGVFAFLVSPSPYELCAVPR
Cytochrome P450 2C19, sequence (P33261 whole entry): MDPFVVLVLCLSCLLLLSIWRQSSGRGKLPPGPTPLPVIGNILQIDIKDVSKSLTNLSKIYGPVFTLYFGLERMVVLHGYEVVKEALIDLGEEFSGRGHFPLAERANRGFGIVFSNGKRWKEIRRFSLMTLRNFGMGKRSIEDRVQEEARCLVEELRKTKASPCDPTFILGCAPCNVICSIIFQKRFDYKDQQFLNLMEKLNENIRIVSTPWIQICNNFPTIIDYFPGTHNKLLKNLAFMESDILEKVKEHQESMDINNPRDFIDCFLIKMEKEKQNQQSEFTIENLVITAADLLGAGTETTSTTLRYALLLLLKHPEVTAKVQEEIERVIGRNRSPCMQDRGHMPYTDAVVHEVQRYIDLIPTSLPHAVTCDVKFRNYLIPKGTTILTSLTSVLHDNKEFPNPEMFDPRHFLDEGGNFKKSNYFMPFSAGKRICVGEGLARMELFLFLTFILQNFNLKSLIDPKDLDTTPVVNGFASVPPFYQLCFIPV
FAD-linked sulfhydryl oxidase ALR, sequence (P55789 whole entry): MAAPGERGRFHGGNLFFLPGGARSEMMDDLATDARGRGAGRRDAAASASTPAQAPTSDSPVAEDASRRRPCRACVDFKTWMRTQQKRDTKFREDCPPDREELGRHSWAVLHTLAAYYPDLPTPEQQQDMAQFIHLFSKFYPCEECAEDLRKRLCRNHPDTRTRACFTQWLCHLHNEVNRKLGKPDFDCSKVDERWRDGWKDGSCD
Eukaryotic translation initiation factor 4E, sequence (P63073 whole entry): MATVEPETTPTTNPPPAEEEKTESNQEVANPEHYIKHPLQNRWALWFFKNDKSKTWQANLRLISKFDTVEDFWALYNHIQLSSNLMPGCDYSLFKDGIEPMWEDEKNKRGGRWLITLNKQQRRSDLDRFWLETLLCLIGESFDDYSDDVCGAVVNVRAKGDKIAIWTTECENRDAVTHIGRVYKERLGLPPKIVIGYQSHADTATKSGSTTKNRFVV

CCOc1ccc2nc(N3CCC(C(=O)NC4CCCCC4)CC3)sc2c1
CC50 [1]: > 40 µM (active)

O=C(c1ccccc1)N1CCN(c2ccc([N+](=O)[O-])c(NCC3CCCO3)c2)CC1 (stereo not drawn)
AC50 (Escherichia coli [2]): 40.2 µM (active)
AC50 (Escherichia coli [3]): 105 µM (active)

CCC(C)N1CCC2(CC1)N=c1c3c(O)c4c(O)c(C)c5c(c4c1=N2)C(=O)[C@@](C)(OC=C[C@H](OC)[C@@H](C)[C@@H](OC(C)=O)[C@H](C)[C@H](O)[C@H](C)[C@@H](O)[C@@H](C)C=CC=C(C)C(=O)N3)O5 (stereo partly drawn)
AC50 (Escherichia coli [2]): 7.88 µM (active)

Clc1ccc(-c2csc3ncnc(N4CCc5ccccc5C4)c23)cc1
CC50 [1]: > 40 µM (active)

CC(C)c1ccc(S(=O)(=O)N2CCN(CCC(=O)Nc3ccc(N(C)C)cc3)CC2)cc1
IC50 (Large T antigen): 15.1 µM (active)

O=C1CC(c2ccc(S(=O)(=O)NCCOc3ccccc3)cc2)CN1 (stereo not drawn)
IC50 (Estrogen receptor beta): > 50 µM (not active)

Cc1ccc(Cn2c(C(CO)Nc3nc(-c4ccc(Cl)c([N+](=O)[O-])c4)cs3)nc3ccccc32)cc1 (stereo not drawn)
CC50 [1]: 37.3 µM (active)

CC(C)(C)c1nnc(NC(=O)NS(=O)(=O)c2ccccc2)s1
AC50 (Escherichia coli [2]): 61.5 µM (active)
AC50 (Cytochrome P450 2C9): 10 µM (inconclusive)
AC50 (Cytochrome P450 2C19): 39.8 µM (inconclusive)

Cc1cc(=O)oc2c(N)c(O)ccc12
IC50 (Large T antigen): 0.77 µM (active)
AC50 [4]: 1.32 µM (active)

O=C(NC1CC1)C1CCN(C2CCN(C(=O)Cc3ccc(F)cc3)CC2)CC1
AC50 (Escherichia coli [2]): 50 µM (active)
AC50 (Escherichia coli [3]): 26.8 µM (active)

CCOC(=O)c1sc(N(Cc2ccccc2)C(=O)COC(=O)c2ccc(O)cc2)nc1C
EC50 (cells [5]): 175 µM (active)
EC50 (cells [6]): > 350 µM (not active)

O=C(Cn1c(=O)oc2ccccc21)N1CCN(c2ccccc2)CC1
Ki (fMet-Leu-Phe receptor): > 66.7 µM (inactive)

O=C(C1=C(O)C(=O)N(CCN2CCOCC2)C1c1ccccc1)c1cccs1 (stereo not drawn)
Ki (fMet-Leu-Phe receptor): > 66.7 µM (inactive)

Cc1cccn2c(=O)c3cc(C(=O)N4CCC5(CC4)OCCO5)n(C)c3nc12
EC50 [7]: 8.42 µM (active)
EC50 [8]: 4.7 µM (active)

O=C1C(C23CC4CC(CC(C4)C2)C3)C(=O)N(c2ccccc2)N1c1ccccc1
Ki (fMet-Leu-Phe receptor): 11.5 µM (active)

CCN(CC)C1=CC(=O)OC12CCCCC2
IC50 (Estrogen receptor beta): > 50 µM (not active)

O=C1CCCC(O)=C1C(C#Cc1ccccc1)C1=C(O)CCCC1=O
Ki (fMet-Leu-Phe receptor): > 66.7 µM (inactive)
AC50 [9]: 6.78 µM (active)
IC50 [10]: > 64 µM (inactive)
EC50 (Protein RecA): > 380 µM (inconclusive)

COc1ccccc1CNC(=O)c1cc2c(C)nn(Cc3ccc(F)cc3)c2s1
CC50 [1]: > 40 µM (active)
AC50 (Cytochrome P450 1A2): 31.6 µM (inconclusive)
AC50 (Cytochrome P450 2D6): 22.4 µM (inconclusive)

COc1ccc(OC)c(C(=O)c2nc3c(n2O)CCCCC3)c1
Ki (fMet-Leu-Phe receptor): 49.6 µM (inactive)

COc1ccccc1NC(=O)c1cc2ccccc2o/c1=N\O
EC50 [7]: > 20 µM (not active)
EC50 [8]: > 20 µM (not active)

COc1ccc(CN(C)C[C@@H]2OCCCC[C@@H](C)Oc3ccc(NC(=O)Nc4ccc(C(F)(F)F)cc4)cc3C(=O)N([C@@H](C)CO)C[C@H]2C)cc1
AC50 [11]: > 70 µM (inactive)
AC50 (Paired box protein Pax-8): 8.11 µM (active)

O=S(=O)(c1ccccc1)N1CCCCN2[C@H](CO)[C@H](c3ccc(-c4ccccc4F)cc3)[C@H]2C1
AC50 [11]: > 70 µM (inactive)
AC50 (Paired box protein Pax-8): 33.7 µM (active)

COc1cc(/C=N/NC(=S)NCCN2CCOCC2)ccc1O
IC50 (Large T antigen): 6.95 µM (active)
IC50 [12]: 19.9 µM (active)

COc1ccccc1/C=C/C(=O)NCC(=O)N/N=C/c1cc(Br)ccc1OC
CC50 [1]: 27.5 µM (active)

Cc1ccc(/C=N\NC(=O)COc2ccc(C)cc2[N+](=O)[O-])cc1
IC50 (Large T antigen): > 100 µM (active)

O=C(Nc1ccc(CN2CCOCC2)cc1)c1ccc(-c2ccc(Br)cc2)o1
EC50 [7]: 9.91 µM (active)
EC50 [8]: 13.9 µM (active)
